These compounds were tested on A. baumannii clinical isolate LAC 17 (assay: Antibiotic susceptibility profile). Details: not given.
Assay type: cell-based, Acinetobacter baumannii
Parameters: key: Resistance; Intermediate; Susceptible
Text: (§1) We obtained over thirty clinical isolates of A. baumannii from nosocomial infections in New York City and Los Angeles. […] Only antibiotics with breakpoints for A. baumannii were used. […] Isolates LA 01 to 20 were acquired from Los Angels County while NY-A to NY-H were obtained from New York City.
(§2) Antibiotic susceptibility profiles of clinical isolates of A. baumannii and reference strains. R, I, and S denote Resistance, Intermediate and Susceptible, respectively. Genetic Profiling of Clinical Isolates of A. baumannii

Structure (SMILES) | Antibiotic susceptibility
C[C@@H](O)[C@H]1C(=O)N2C(C(=O)O)=C(S[C@@H]3CN[C@H](C(=O)N(C)C)C3)[C@H](C)[C@H]12 [MEM, Meropenem] | S

What follows are compounds tested on A. baumannii clinical isolate LAC 05 (assay: Antibiotic susceptibility profile). Details: not given.
Assay type: cell-based, Acinetobacter baumannii
Parameters: key: Resistance; Intermediate; Susceptible
Text: as §1, §2

Structure (SMILES) | Antibiotic susceptibility
C[C@@H](O)[C@H]1C(=O)N2C(C(=O)O)=C(S[C@@H]3CN[C@H](C(=O)N(C)C)C3)[C@H](C)[C@H]12 [MEM, Meropenem] | S

These compounds were tested on A. baumannii reference strain 19606 (assay: Antibiotic susceptibility profile). Details: strain 19606 (ATCC).
Assay type: cell-based, Acinetobacter baumannii
Parameters: key: Resistance; Intermediate; Susceptible
Text: as §1, §2

Structure (SMILES) | Antibiotic susceptibility
C[C@@H](O)[C@H]1C(=O)N2C(C(=O)O)=C(S[C@@H]3CN[C@H](C(=O)N(C)C)C3)[C@H](C)[C@H]12 [MEM, Meropenem] | S

The compounds below were run on A. baumannii clinical isolate LAC 13 (assay: Antibiotic susceptibility profile). Details: not given.
Assay type: cell-based, Acinetobacter baumannii
Parameters: key: Resistance; Intermediate; Susceptible
Text: as §1, §2

Structure (SMILES) | Antibiotic susceptibility
C[C@@H](O)[C@H]1C(=O)N2C(C(=O)O)=C(S[C@@H]3CN[C@H](C(=O)N(C)C)C3)[C@H](C)[C@H]12 [MEM, Meropenem] | S

What follows are compounds tested on A. baumannii clinical isolate LAC 11 (assay: Antibiotic susceptibility profile). Details: not given.
Assay type: cell-based, Acinetobacter baumannii
Parameters: key: Resistance; Intermediate; Susceptible
Text: as §1, §2

Structure (SMILES) | Antibiotic susceptibility
C[C@@H](O)[C@H]1C(=O)N2C(C(=O)O)=C(S[C@@H]3CN[C@H](C(=O)N(C)C)C3)[C@H](C)[C@H]12 [MEM, Meropenem] | R

The compounds below were run on A. baumannii reference strain AYE (assay: Antibiotic susceptibility profile). Details: not given.
Assay type: cell-based, Acinetobacter baumannii
Parameters: key: Resistance; Intermediate; Susceptible
Text: as §1, §2

Structure (SMILES) | Antibiotic susceptibility
C[C@@H](O)[C@H]1C(=O)N2C(C(=O)O)=C(S[C@@H]3CN[C@H](C(=O)N(C)C)C3)[C@H](C)[C@H]12 [MEM, Meropenem] | S

These compounds were tested on A. baumannii clinical isolate NY A (assay: Antibiotic susceptibility profile). Details: not given.
Assay type: cell-based, Acinetobacter baumannii
Parameters: key: Resistance; Intermediate; Susceptible
Text: as §1, §2

Structure (SMILES) | Antibiotic susceptibility
C[C@@H](O)[C@H]1C(=O)N2C(C(=O)O)=C(S[C@@H]3CN[C@H](C(=O)N(C)C)C3)[C@H](C)[C@H]12 [MEM, Meropenem] | R

The compounds below were run on A. baumannii clinical isolate LAC 19 (assay: Antibiotic susceptibility profile). Details: not given.
Assay type: cell-based, Acinetobacter baumannii
Parameters: key: Resistance; Intermediate; Susceptible
Text: as §1, §2

Structure (SMILES) | Antibiotic susceptibility
C[C@@H](O)[C@H]1C(=O)N2C(C(=O)O)=C(S[C@@H]3CN[C@H](C(=O)N(C)C)C3)[C@H](C)[C@H]12 [MEM, Meropenem] | R

Each compound was assayed on A. baumannii clinical isolate LAC 18 (assay: Antibiotic susceptibility profile). Details: not given.
Assay type: cell-based, Acinetobacter baumannii
Parameters: key: Resistance; Intermediate; Susceptible
Text: as §1, §2

Structure (SMILES) | Antibiotic susceptibility
C[C@@H](O)[C@H]1C(=O)N2C(C(=O)O)=C(S[C@@H]3CN[C@H](C(=O)N(C)C)C3)[C@H](C)[C@H]12 [MEM, Meropenem] | S

The compounds below were run on A. baumannii clinical isolate NY F (assay: Antibiotic susceptibility profile). Details: not given.
Assay type: cell-based, Acinetobacter baumannii
Parameters: key: Resistance; Intermediate; Susceptible
Text: as §1, §2

Structure (SMILES) | Antibiotic susceptibility
C[C@@H](O)[C@H]1C(=O)N2C(C(=O)O)=C(S[C@@H]3CN[C@H](C(=O)N(C)C)C3)[C@H](C)[C@H]12 [MEM, Meropenem] | R

The compounds below were run on A. baumannii reference strain 17978 (assay: Antibiotic susceptibility profile). Details: strain 17978 (ATCC).
Assay type: cell-based, Acinetobacter baumannii
Parameters: key: Resistance; Intermediate; Susceptible
Text: as §1, §2

Structure (SMILES) | Antibiotic susceptibility
C[C@@H](O)[C@H]1C(=O)N2C(C(=O)O)=C(S[C@@H]3CN[C@H](C(=O)N(C)C)C3)[C@H](C)[C@H]12 [MEM, Meropenem] | S

Each compound was assayed on A. baumannii clinical isolate LAC 16 (assay: Antibiotic susceptibility profile). Details: not given.
Assay type: cell-based, Acinetobacter baumannii
Parameters: key: Resistance; Intermediate; Susceptible
Text: as §1, §2

Structure (SMILES) | Antibiotic susceptibility
C[C@@H](O)[C@H]1C(=O)N2C(C(=O)O)=C(S[C@@H]3CN[C@H](C(=O)N(C)C)C3)[C@H](C)[C@H]12 [MEM, Meropenem] | S

These compounds were tested on A. baumannii clinical isolate LAC 07 (assay: Antibiotic susceptibility profile). Details: not given.
Assay type: cell-based, Acinetobacter baumannii
Parameters: key: Resistance; Intermediate; Susceptible
Text: as §1, §2

Structure (SMILES) | Antibiotic susceptibility
C[C@@H](O)[C@H]1C(=O)N2C(C(=O)O)=C(S[C@@H]3CN[C@H](C(=O)N(C)C)C3)[C@H](C)[C@H]12 [MEM, Meropenem] | R

The compounds below were run on A. baumannii clinical isolate NY G (assay: Antibiotic susceptibility profile). Details: not given.
Assay type: cell-based, Acinetobacter baumannii
Parameters: key: Resistance; Intermediate; Susceptible
Text: as §1, §2

Structure (SMILES) | Antibiotic susceptibility
C[C@@H](O)[C@H]1C(=O)N2C(C(=O)O)=C(S[C@@H]3CN[C@H](C(=O)N(C)C)C3)[C@H](C)[C@H]12 [MEM, Meropenem] | R

The compounds below were run on A. baumannii clinical isolate LAC 08 (assay: Antibiotic susceptibility profile). Details: not given.
Assay type: cell-based, Acinetobacter baumannii
Parameters: key: Resistance; Intermediate; Susceptible
Text: as §1, §2

Structure (SMILES) | Antibiotic susceptibility
C[C@@H](O)[C@H]1C(=O)N2C(C(=O)O)=C(S[C@@H]3CN[C@H](C(=O)N(C)C)C3)[C@H](C)[C@H]12 [MEM, Meropenem] | S

Each compound was assayed on A. baumannii clinical isolate NY B (assay: Antibiotic susceptibility profile). Details: not given.
Assay type: cell-based, Acinetobacter baumannii
Parameters: key: Resistance; Intermediate; Susceptible
Text: as §1, §2

Structure (SMILES) | Antibiotic susceptibility
C[C@@H](O)[C@H]1C(=O)N2C(C(=O)O)=C(S[C@@H]3CN[C@H](C(=O)N(C)C)C3)[C@H](C)[C@H]12 [MEM, Meropenem] | R

From patent US20080090734A1, “DRUG SCREENING AND TARGET IDENTIFICATION USING SPR IMAGING OF TARGET PROTEIN ARRAYS” (The Trustees of California State University, priority 2006, published 2008)
